Measurements reported in patent US20250170248A1, “SMARCA DEGRADERS AND USES THEREOF” (Kymera Therapeutics, Inc., priority 2021, published 2025).

Legend:
Format in all cases: cell-based
SMARCA2 [1] = target: T1, SMARCA2 (Homo sapiens, UniProt P51531); assay: MSD SMARCA2 degradation in A549 cell line; settings: for Dmax: A549, A549 cells; for Dmax / DC50: 24 h; for DC50 / SMARCA2 MSD A549 degradation 24 h: Average Dmax %: A549 cells; for DC50: read-out: SMARCA2 MSD A549 degradation 24 h: Average external-Abs DC50
T1 sequence (P51531 whole entry): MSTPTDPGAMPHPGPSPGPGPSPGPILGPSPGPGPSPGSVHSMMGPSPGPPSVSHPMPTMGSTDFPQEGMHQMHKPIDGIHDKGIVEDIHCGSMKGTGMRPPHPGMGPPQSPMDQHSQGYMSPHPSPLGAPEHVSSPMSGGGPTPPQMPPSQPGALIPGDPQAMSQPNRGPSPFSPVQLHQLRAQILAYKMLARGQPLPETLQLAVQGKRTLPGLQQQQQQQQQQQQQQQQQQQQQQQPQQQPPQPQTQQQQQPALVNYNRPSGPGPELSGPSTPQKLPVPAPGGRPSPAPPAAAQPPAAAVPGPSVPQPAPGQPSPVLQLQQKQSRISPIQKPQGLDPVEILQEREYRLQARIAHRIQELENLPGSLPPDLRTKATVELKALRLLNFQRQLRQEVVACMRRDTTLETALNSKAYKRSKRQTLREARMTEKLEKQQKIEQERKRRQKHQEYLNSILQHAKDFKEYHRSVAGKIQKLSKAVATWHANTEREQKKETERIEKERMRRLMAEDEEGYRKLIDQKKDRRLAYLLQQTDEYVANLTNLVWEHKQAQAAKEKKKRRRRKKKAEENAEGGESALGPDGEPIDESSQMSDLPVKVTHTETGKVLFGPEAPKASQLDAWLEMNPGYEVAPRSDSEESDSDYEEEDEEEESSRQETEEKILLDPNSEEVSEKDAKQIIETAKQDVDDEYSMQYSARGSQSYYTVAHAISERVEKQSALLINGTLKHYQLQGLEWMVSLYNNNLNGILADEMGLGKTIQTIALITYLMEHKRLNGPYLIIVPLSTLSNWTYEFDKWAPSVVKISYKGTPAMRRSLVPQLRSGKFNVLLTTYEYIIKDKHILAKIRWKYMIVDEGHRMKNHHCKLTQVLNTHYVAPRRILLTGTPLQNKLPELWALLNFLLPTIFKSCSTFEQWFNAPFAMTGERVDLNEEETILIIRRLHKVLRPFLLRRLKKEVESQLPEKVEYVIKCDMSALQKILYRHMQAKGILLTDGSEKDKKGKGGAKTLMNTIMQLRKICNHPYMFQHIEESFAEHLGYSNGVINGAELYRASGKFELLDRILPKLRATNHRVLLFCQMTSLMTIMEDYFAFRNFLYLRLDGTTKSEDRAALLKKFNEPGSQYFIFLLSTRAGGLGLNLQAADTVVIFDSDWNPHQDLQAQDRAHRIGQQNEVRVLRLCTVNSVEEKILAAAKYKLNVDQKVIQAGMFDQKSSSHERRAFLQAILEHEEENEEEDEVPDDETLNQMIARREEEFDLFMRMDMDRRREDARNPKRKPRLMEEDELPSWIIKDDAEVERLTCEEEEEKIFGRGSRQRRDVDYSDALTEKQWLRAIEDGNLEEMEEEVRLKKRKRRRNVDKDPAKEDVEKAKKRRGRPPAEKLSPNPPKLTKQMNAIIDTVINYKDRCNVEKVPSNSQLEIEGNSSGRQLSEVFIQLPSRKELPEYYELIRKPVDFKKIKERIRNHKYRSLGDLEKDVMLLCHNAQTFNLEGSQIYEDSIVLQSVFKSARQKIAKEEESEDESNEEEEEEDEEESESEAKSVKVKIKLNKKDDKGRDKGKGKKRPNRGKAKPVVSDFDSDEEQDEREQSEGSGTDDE
Summary of the method: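 A549 cells treated 24 h with compound, 3-fold series from 1000 nM. Lysates captured on MSD plates and SMARCA2 quantified with anti-SMARCA2 and SULFO-TAG secondary antibodies (electrochemiluminescence). DC50 and Dmax (% degradation at 24 h) reported as letter bins.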

SMARCA4 = target: T2, SMARCA4 (Homo sapiens, UniProt P51532); assay: SMARCA4 Western blot degradation in MV4-11 cells; settings: for Dmax: MV4-11, MV4-11 cells, read-out: SMARCA4 MSD MV411 degradation 24 h: average Dmax %; for Dmax / DC50: 24 h; for DC50 / SMARCA4 MSD MV411 degradation 24 h: average Dmax %: MV4-11 cells; for DC50: read-out: SMARCA4 MSD MV411 degradation 24 h: Mean external-Abs DC50
T2 construct: SMARCA2/SMARCA4 protein degradation selectivity in MV4-11 cells; endogenous in cells; host or cells: MV4-11
T2 sequence (P51532 whole entry): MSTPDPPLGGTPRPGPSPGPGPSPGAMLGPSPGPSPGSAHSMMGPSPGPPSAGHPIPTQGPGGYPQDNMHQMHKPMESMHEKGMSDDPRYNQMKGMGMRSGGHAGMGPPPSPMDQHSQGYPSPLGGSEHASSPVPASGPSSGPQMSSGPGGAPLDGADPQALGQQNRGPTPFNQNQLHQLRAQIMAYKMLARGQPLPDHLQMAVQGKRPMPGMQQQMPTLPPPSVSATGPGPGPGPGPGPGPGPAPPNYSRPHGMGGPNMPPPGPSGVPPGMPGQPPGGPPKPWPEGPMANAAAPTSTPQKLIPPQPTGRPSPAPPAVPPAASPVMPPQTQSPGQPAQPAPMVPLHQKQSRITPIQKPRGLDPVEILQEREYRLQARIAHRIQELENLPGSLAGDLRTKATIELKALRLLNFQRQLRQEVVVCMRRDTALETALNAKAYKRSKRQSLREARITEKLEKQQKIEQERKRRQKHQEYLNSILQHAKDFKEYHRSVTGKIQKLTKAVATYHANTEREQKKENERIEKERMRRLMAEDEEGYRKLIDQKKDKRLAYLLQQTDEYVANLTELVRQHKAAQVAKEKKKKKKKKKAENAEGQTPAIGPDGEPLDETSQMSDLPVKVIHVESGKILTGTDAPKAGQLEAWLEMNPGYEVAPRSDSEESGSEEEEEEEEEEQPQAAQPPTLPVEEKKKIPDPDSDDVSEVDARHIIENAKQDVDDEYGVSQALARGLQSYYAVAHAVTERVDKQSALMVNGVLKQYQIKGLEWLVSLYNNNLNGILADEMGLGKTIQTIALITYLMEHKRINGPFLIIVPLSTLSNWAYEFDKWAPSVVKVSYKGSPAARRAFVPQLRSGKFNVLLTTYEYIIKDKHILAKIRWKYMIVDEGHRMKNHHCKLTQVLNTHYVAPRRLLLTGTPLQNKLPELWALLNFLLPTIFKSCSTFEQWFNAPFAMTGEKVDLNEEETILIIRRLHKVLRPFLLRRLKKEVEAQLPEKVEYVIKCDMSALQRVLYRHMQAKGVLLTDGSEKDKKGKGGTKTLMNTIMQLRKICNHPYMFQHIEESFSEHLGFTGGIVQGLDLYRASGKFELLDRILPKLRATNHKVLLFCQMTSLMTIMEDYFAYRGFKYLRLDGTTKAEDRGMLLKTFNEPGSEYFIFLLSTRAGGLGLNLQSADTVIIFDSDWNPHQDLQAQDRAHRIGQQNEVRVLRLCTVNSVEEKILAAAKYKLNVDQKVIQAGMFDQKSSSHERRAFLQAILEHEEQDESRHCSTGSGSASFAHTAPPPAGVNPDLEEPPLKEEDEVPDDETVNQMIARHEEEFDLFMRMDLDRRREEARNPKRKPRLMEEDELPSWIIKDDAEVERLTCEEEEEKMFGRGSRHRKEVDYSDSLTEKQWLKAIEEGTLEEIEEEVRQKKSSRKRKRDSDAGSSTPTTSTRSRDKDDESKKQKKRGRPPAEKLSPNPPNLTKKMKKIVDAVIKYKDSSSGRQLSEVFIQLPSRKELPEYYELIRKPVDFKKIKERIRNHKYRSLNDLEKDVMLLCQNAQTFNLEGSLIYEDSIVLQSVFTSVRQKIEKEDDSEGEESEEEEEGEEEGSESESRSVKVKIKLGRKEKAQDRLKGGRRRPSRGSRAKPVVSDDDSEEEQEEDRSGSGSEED
Summary of the method: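 MV4-11 cells (4×10^6/well) treated with compound for 24 h, lysed in RIPA with protease/phosphatase inhibitors, and SMARCA2, SMARCA4 and beta-actin detected by Western blot with LI-COR readout. Values reported as letter-coded DC50, 24 h Dmax % and SMARCA2/4 selectivity fold.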

SMARCA2 [2] = target: T1, SMARCA2; assay: SMARCA2 Western blot degradation in MV4-11 cells; set-up: SMARCA2/SMARCA4 protein degradation selectivity in MV4-11 cells; endogenous in cells; host or cells: MV4-11; settings: for Dmax: MV4-11, MV4-11 cells, read-out: SMARCA2 MSD MV411 degradation 24 h: average Dmax %; for Dmax / DC50 / SMARCA2 MSD MV411 degradation 24 h: average Dmax %: 24 h; for DC50 / Selectivity in MV411 / SMARCA2 MSD MV411 degradation 24 h: average Dmax %: MV4-11 cells; for DC50: read-out: SMARCA2 MSD MV411 degradation 24 h: Mean external-Abs DC50; for Selectivity in MV411: SMARCA2/4 selectivity

Dmax (SMARCA2 [1]) [%] | DC50 (SMARCA2 [1]) [nM] | Dmax (SMARCA4) [%] | DC50 (SMARCA4) [nM] | Dmax (SMARCA2 [2]) [%] | DC50 (SMARCA2 [2]) [nM] | Selectivity in MV411 (SMARCA2 [2]) | SMARCA2 MSD A549 degradation 24 h: Average Dmax % (SMARCA2 [1]) | SMARCA4 MSD MV411 degradation 24 h: average Dmax % (SMARCA4) | SMARCA2 MSD MV411 degradation 24 h: average Dmax % (SMARCA2 [2]) | Structure (SMILES)
> 90 | 10 to 50 | > 90 | 10 to 100 | 70 to 90 | 10 to 100 | C (C (10-100 fold)) |  |  |  | Cn1nccc1-c1ccc(CNC(=O)[C@@H]2C[C@@H](O)CN2C(=O)[C@@H](NC(=O)[C@H]2CC[C@H](c3ccc(-c4cnc(N5CCN6c7cc(-c8ccccc8O)nnc7NC[C@H]6C5)nc4)cc3)CC2)C(C)(C)C)cc1 (single isomer, unassigned) [I-87]
> 90 | < 10 | > 90 | 1 to 10 | > 90 | < 1 | C (C (10-100 fold)) |  |  |  | Cn1nccc1-c1ccc(CNC(=O)[C@@H]2C[C@@H](O)CN2C(=O)[C@@H](NC(=O)[C@H]2CC[C@@H](c3ccc(-c4cnc(N5CCN6c7cc(-c8ccccc8O)nnc7NC[C@H]6C5)nc4)cc3)CC2)C(C)(C)C)cc1 (single isomer, unassigned) [I-88]
70 to 90 | > 100 | < 50 | > 100 | 70 to 90 | 10 to 100 | C (C (10-100 fold)) |  |  |  | C#Cc1ccc(CNC(=O)[C@@H]2C[C@@H](O)CN2C(=O)[C@@H](NC(=O)C2CCC3(CC2)CC(N2CCC(N4CCC[C@H](C(=O)N5CCN6c7cc(-c8ccccc8O)nnc7NC[C@H]6C5)C4)CC2)C3)C(C)(C)C)cc1 (single isomer, unassigned) [I-90]
> 90 | > 100 | < 50 | > 100 | 70 to 90 | 1 to 10 | A (A (>500 fold)) |  |  |  | C#Cc1ccc(CNC(=O)[C@@H]2C[C@@H](O)CN2C(=O)[C@@H](NC(=O)C2CCC3(CC2)CC(N2CCC(N4CCC[C@@H](C(=O)N5CCN6c7cc(-c8ccccc8O)nnc7NC[C@H]6C5)C4)CC2)C3)C(C)(C)C)cc1 (single isomer, unassigned) [I-91]
 | > 100 |  | > 100 |  | 10 to 100 | C (C (10-100 fold)) | A (A (>90% degradation)) | C (C (50-70% degradation)) | B (B (>70-90% degradation)) | Cc1ncsc1-c1ccc(CNC(=O)[C@@H]2C[C@@H](O)CN2C(=O)[C@@H](NC(=O)[C@H]2CCC3(CC2)C[C@H](N2CCC4(CC2)CN(C(=O)N2CCN5c6cc(-c7ccccc7O)nnc6NC[C@H]5C2)CCO4)C3)C(C)(C)C)cc1 (single isomer, unassigned) [I-93]

Second part, the molecule before the results:

Structure (SMILES) | Dmax (SMARCA2 [1]) [%] | DC50 (SMARCA2 [1]) [nM] | Dmax (SMARCA4) [%] | DC50 (SMARCA4) [nM] | Dmax (SMARCA2 [2]) [%] | DC50 (SMARCA2 [2]) [nM] | Selectivity in MV411 (SMARCA2 [2]) | SMARCA2 MSD A549 degradation 24 h: Average Dmax % (SMARCA2 [1]) | SMARCA4 MSD MV411 degradation 24 h: average Dmax % (SMARCA4) | SMARCA2 MSD MV411 degradation 24 h: average Dmax % (SMARCA2 [2])
Cc1ncsc1-c1ccc(CNC(=O)[C@@H]2C[C@@H](O)CN2C(=O)C(c2cc(OCCCN3CCC(c4cnc(N5CCN6c7cc(-c8ccccc8O)nnc7NC[C@H]6C5)nc4)CC3)no2)C(C)C)cc1 (single isomer, unassigned) [I-53] | > 90 | 10 to 50 | > 90 | 1 to 10 | > 90 | < 1 | D (D (<10 fold)) |  |  | 
Cc1ncsc1-c1ccc(CNC(=O)[C@@H]2C[C@@H](O)CN2C(=O)[C@@H](NC(=O)N2CC3(CCC(N4CCC(c5cnc(N6CCc7[nH]c8nnc(-c9ccccc9O)cc8c7[C@@H]6C)nc5)CC4)CC3)C2)C(C)(C)C)cc1 (single isomer, unassigned) [I-63] | > 90 | 10 to 50 | 50 to 70 | > 100 | 70 to 90 | 10 to 100 | C (C (10-100 fold)) |  |  | 
C#Cc1ccc(CNC(=O)[C@@H]2C[C@@H](O)CN2C(=O)[C@@H](NC(=O)N2CC3(CC(N4CCC(c5cnc(N6CCc7[nH]c8nnc(-c9ccccc9O)cc8c7[C@H]6C)nc5)CC4)C3)C2)C(C)(C)C)cc1 (single isomer, unassigned) [I-73] | > 90 | < 10 | 70 to 90 | 10 to 100 | > 90 | 1 to 10 | C (C (10-100 fold)) |  |  | 
Cc1ncsc1-c1ccc(CNC(=O)[C@@H]2C[C@@H](O)CN2C(=O)[C@@H](NC(=O)[C@H]2CC3(C2)C[C@H](N2CCN(c4cnc(N5CCc6[nH]c7nnc(-c8ccccc8O)cc7c6[C@H]5C)nc4)CC2)C3)C(C)(C)C)cc1 (single isomer, unassigned) [I-76] | > 90 | 10 to 50 | 50 to 70 | > 100 | 70 to 90 | 1 to 10 | C (C (10-100 fold)) |  |  | 
Cc1ncsc1-c1ccc(CNC(=O)[C@@H]2C[C@@H](O)CN2C(=O)[C@@H](NC(=O)[C@H]2CC3(C2)C[C@H](N2CCN(c4cnc(N5CCc6[nH]c7nnc(-c8ccccc8O)cc7c6[C@H]5C)nc4)CC2)C3)C(C)(C)C)cc1 (single isomer, unassigned) [I-77] |  | 10 to 50 |  | > 100 |  | 1 to 10 | C (C (10-100 fold)) | A (A (>90% degradation)) | D (D (<50% degradation)) | B (B (>70-90% degradation))
Cc1ncsc1-c1ccc(CNC(=O)[C@@H]2C[C@@H](O)CN2C(=O)[C@@H](NC(=O)[C@H]2CC3(CC[C@H](N4CCN(c5cnc(N6CCc7[nH]c8nnc(-c9ccccc9O)cc8c7[C@H]6C)nc5)CC4)CC3)C2)C(C)(C)C)cc1 (single isomer, unassigned) [I-78] | > 90 | 10 to 50 | < 50 | > 100 | 70 to 90 | 10 to 100 | B (B (>100-500 fold)) |  |  | 
Cc1ncsc1-c1ccc(CNC(=O)[C@@H]2C[C@@H](O)CN2C(=O)[C@@H](NC(=O)[C@H]2CC3(CC[C@H](N4CCN(c5cnc(N6CCc7[nH]c8nnc(-c9ccccc9O)cc8c7[C@H]6C)nc5)CC4)CC3)C2)C(C)(C)C)cc1 (single isomer, unassigned) [I-79] |  | > 100 |  | > 100 |  | 10 to 100 | C (C (10-100 fold)) | A (A (>90% degradation)) | D (D (<50% degradation)) | B (B (>70-90% degradation))
Cc1ncsc1-c1ccc(CNC(=O)[C@@H]2C[C@@H](O)CN2C(=O)[C@@H](NC(=O)[C@H]2CC3(CC[C@H](N4CCN(c5ccnc(N6CCc7[nH]c8nnc(-c9ccccc9O)cc8c7[C@H]6C)n5)CC4)CC3)C2)C(C)(C)C)cc1 (single isomer, unassigned) [I-81] |  | 10 to 50 |  | 10 to 100 |  | 1 to 10 | C (C (10-100 fold)) | A (A (>90% degradation)) | B (B (>70-90% degradation)) | A (A (>90% degradation))
Cc1ncsc1-c1ccc([C@H](C)NC(=O)[C@@H]2C[C@@H](O)CN2C(=O)[C@@H](NC(=O)Cc2ccc(CCCC(=O)N3CCN4c5cc(-c6ccccc6O)nnc5NC[C@H]4C3)cc2)C(C)(C)C)cc1 (single isomer, unassigned) [I-83] | 70 to 90 | 50 to 100 | > 90 | 10 to 100 | > 90 | 1 to 10 | C (C (10-100 fold)) |  |  | 
